{"source": "patent US20100251415A1", "about": "“Composition and Method for Modulating Plant Transformation” (priority 2009, published 2010)", "key": {"N. tabacum [1]": {"system": "N. tabacum", "assay": "Stable T-DNA integration: LUC expression test of regenerated plantlets", "type": "in vivo, Nicotiana tabacum", "conditions": "for Calli regenerated and transplanted, LUC expression test: LUC negative / Calli regenerated and transplanted, LUC expression test: LUC positive: 20 leaves transformed", "experimental": "The number of transgenic plants, having incorporated a marker gene, regenerated from tobacco calli in various transformation experiments were counted. All the regenerated plants were screened using a luciferase camera. Spraying the transgenic plants with luciferine, the substrate for luciferase enzyme, allowed the identification of transgenic plants expressing the luciferase.\nAfter a period of about 3 to 4 weeks, the number of regenerated calli were determined. Shoots that developed were excised from calli and transferred to a root inducing solid MS medium containing 0.5 mg/L of naphtaleneacetic acid (NAA), 100 mg/L ticarcillin, 3 mg/L potassium clavulanate and 25 mg/L hygromycin. After a 1 to 2 week period of root induction, the plantlets were transplanted to soil.\nThe effects of CeCl3 on the occurrence of stable plant transformation events in N. tabacum plants were evaluated. These experiments identified transformed plants where the DNA of interest had stably integrated into the plant genome.\nThe newly appeared plantlets regenerated from the calli of Example 3, showing evidence of root formation, were excised from the calli and transferred to soil.\nPlantlets were sprayed with luciferine, and the total number of luciferase-positive plantlets was scored. This allowed the calculation of the transformation frequency, as the number of plants expressing LUC gene to the number of transformed leaves, shown in FIG. 4.\nThe number of stable transformants re-generated from plants grown on CeCl3 supplemented media and control medium, as detailed in Example 3, were compared."}, "N. tabacum [2]": {"system": "N. tabacum", "assay": "Calli regeneration under hygromycin selection after Agrobacterium-mediated transformation of leaves", "type": "in vivo, Nicotiana tabacum", "conditions": "for Calli regenerated and transplanted: total: 20 leaves transformed", "experimental": "Seeds of tobacco cultivar Big Havana were surface-sterilized with a solution containing 1% bleach and 0.05% Tween-80 for about 3 minutes and then rinsed twice with sterile distilled water for about 5 minutes. Surface-sterilized seeds were plated in 100 mm Petri dishes on sterile Whatman® filter paper submersed in 4 ml of liquid MS medium containing varying amounts of CeCl3, LaCl3 and a combination of CeCl3 and LaCl3 and the plants were transferred to a growth chamber for germination. Once germinated, the plants were removed from the growth chamber and grown for a period of one week under conditions of 16-hours light, 22° C. and 8-hours dark, 18° C. The three to five one week old plants were then removed from the 4-ml liquid medium and transferred to single sterile glass 250 ml flasks containing 15 ml of sterile liquid MS media supplemented with varying amounts of CeCl3, LaCl3 and a combination of CeCl3 and LaCl3. Flasks were then installed on shakers at 50-75 rpm. Plants were continuously grown under conditions of 16-hours light, 22° C. and 8-hours dark, 18° C. The growth medium in each flask was replaced weekly with 25 ml of fresh medium. Following a 3-week period, plants were removed from the flasks and 2 to 3 pairs of fully developed fresh leaves about 2-4 cm long were harvested (cut from the plant) for transformation with Agrobacteria.\nExperimental groups of tobacco plants were germinated and grown in a liquid medium culture supplemented with varying amounts of CeCl3, LaCl3 and a combination of CeCl3 and LaCl3. Control plants for the transformation experiments were grown in a standard MS-medium that was not supplemented with CeCl3 or LaCl3.\nFour weeks post-germination, the tobacco plants were removed from the liquid medium culture. The leaves from the plants were removed, and several parallel incisions were made along the leaves. The leaves were then vacuum infiltrated with an Agrobacterium suspension culture carrying the plasmid with LUC (gene coding for luciferase) and hygromycin (gene coding for the resistance to hygromycin) genes.\nThe leaves were vacuum-infiltrated twice for about 5 minutes with the Agrobacterium suspension culture using standard procedures known in the art. Following vacuum infiltration, the tobacco leaves were dried for about 5 to 10 minutes on sterile Whatman® filter paper to remove substantially all excess Agrobacterium cells. The leaves were then placed on plates containing MS medium, and each of the plates were placed for in a room for a period of 3 day at a temperature of 22° C. and exposed to a daily regime of 16-hours of light and 8-hours of dark.\nLeaves from each of the experimental groups grown on the different media compositions having varying amounts of CeCl3, LaCl3 and a combination of CeCl3 and LaCl3 and the controls were washed with sterile water to remove the […]. To remove traces of growth medium, leaves were blotted on sterile filter paper and then submersed in a Petri dish laid out with Whatman® filter paper containing re-suspended Agrobacterium cells. Each submersed leaf surface was incised using a sharp surgical blade in parallel along the side veins. The distance between the two parallel incisions was about 5-7 mm. The primary leaf vein and leaf margins were left intact. Once cutting was complete, leaves remained submersed for a period of about 10 minutes. Leaves were then removed from the Petri dish and were blotted dry and placed upside-down on plates of MS medium, and were incubated in a dark room at 22° C. for a period of 3 days. Following incubation, leaves were removed from the plates and rinsed with sterile distilled water, blotted dry and transferred onto solid MS medium containing 0.8 mg/L of indole-3-acetic acid (IAA), and 2 mg/L kinetin for calli induction and regeneration, a combination of 100 mg/L ticarcillin and 3 mg/L potassium clavulanate to control Agrobacterium growth, and 25 mg/L hygromycin for selection for transformed cells. […]"}, "[3]": {"conditions": "0.1 μM CeCl3, liquid MS, Table 2 experiment"}, "[4]": {"conditions": "0.1 μM CeCl3, liquid MS, second independent experiment (Table 3)"}, "[5]": {"conditions": "0.5 μM CeCl3, liquid MS, Table 2 experiment"}, "[6]": {"conditions": "1.0 μM CeCl3, liquid MS, second independent experiment (Table 3)"}}, "data": [{"smiles": "[Ce+3].[Cl-].[Cl-].[Cl-]", "note": "[CeCl3, cerium (III) chloride]", "values": [{"measurement": "difference in numbers of stable transformants versus control media", "setting": "N. tabacum [1]; 0.1 μM CeCl3, FIG. 4", "value": 2.0, "unit": "fold"}, {"measurement": "Calli regenerated and transplanted, LUC expression test: LUC negative", "setting": "N. tabacum [1]; [3]", "value": 13}, {"measurement": "Calli regenerated and transplanted, LUC expression test: LUC positive", "setting": "N. tabacum [1]; [3]", "value": 23}, {"measurement": "Calli regenerated and transplanted, LUC expression test: LUC negative", "setting": "N. tabacum [1]; [4]", "value": 13}, {"measurement": "Calli regenerated and transplanted, LUC expression test: LUC positive", "setting": "N. tabacum [1]; [4]", "value": 34}, {"measurement": "Integration frequency", "setting": "N. tabacum [1]; [3]", "value": "1.15 LUC positive plants/leaf trans"}, {"measurement": "Integration frequency", "setting": "N. tabacum [1]; [4]", "value": "1.7 LUC positive plants/leaf trans"}, {"measurement": "Calli regenerated and transplanted, LUC expression test: LUC negative", "setting": "N. tabacum [1]; [5]", "value": 18}, {"measurement": "Calli regenerated and transplanted, LUC expression test: LUC positive", "setting": "N. tabacum [1]; [5]", "value": 38}, {"measurement": "Integration frequency", "setting": "N. tabacum [1]; [5]", "value": "1.9 LUC positive plants/leaf trans"}, {"measurement": "difference in numbers of stable transformants versus control media", "setting": "N. tabacum [1]; 1.0 μM CeCl3, FIG. 4", "value": 3.4, "unit": "fold"}, {"measurement": "Calli regenerated and transplanted, LUC expression test: LUC negative", "setting": "N. tabacum [1]; [6]", "value": 18}, {"measurement": "Calli regenerated and transplanted, LUC expression test: LUC positive", "setting": "N. tabacum [1]; [6]", "value": 57}, {"measurement": "Integration frequency", "setting": "N. tabacum [1]; [6]", "value": "2.85 LUC positive plants/leaf trans"}, {"measurement": "increase in the number of calli regenerated compared to the control medium", "setting": "N. tabacum [2]; 0.1 μM CeCl3, Table 2 experiment", "value": 1.8, "unit": "fold"}, {"measurement": "Calli regenerated and transplanted: total", "setting": "N. tabacum [2]; [3]", "value": 35}, {"measurement": "Calli regenerated and transplanted: total", "setting": "N. tabacum [2]; [4]", "value": 48}, {"measurement": "increase in the number of calli regenerated compared to the control medium", "setting": "N. tabacum [2]; 0.1 μM CeCl3, second independent experiment (Table 3, FIG. 4)", "value": 2.2, "unit": "fold"}, {"measurement": "increase in the number of calli regenerated compared to the control medium", "setting": "N. tabacum [2]; 0.5 μM CeCl3, Table 2 experiment", "value": 2.9, "unit": "fold"}, {"measurement": "Calli regenerated and transplanted: total", "setting": "N. tabacum [2]; [5]", "value": 56}, {"measurement": "Calli regenerated and transplanted: total", "setting": "N. tabacum [2]; [6]", "value": 73}, {"measurement": "increase in the number of calli regenerated compared to the control medium", "setting": "N. tabacum [2]; 1.0 μM CeCl3, second independent experiment (Table 3, FIG. 4)", "value": 3.3, "unit": "fold"}]}]}
